Data on 1 compound can be found in ChEMBL document CHEMBL1155003, “Halicyclamine A, a marine spongean alkaloid as a lead for anti-tuberculosis agent” (2008).

SMILES strings stand for the structures. ≈ marks a conversion by molar mass, not a printed value.

What all share (type): functional
What all share (settings): 336 h

Test [1] has as its system Mycobacterium tuberculosis. Nature of the test: Antitubercular activity against isoniazid-resistant Mycobacterium tuberculosis H37Rv ATCC 35822 after 14 days.
Test [2] relates to Mycobacterium tuberculosis. The test is described as follows: Antitubercular activity against streptomycin-resistant Mycobacterium tuberculosis H37Rv ATCC 35820 after 14 days.
The test system of test [3] is Mycobacterium tuberculosis. The test is described as follows: Antitubercular activity against ethambutol-resistant Mycobacterium tuberculosis H37Rv ATCC 35837 after 14 days.
The test system of test [4] is Mycobacterium tuberculosis. Nature of the test: Antitubercular activity against rifampicin-resistant Mycobacterium tuberculosis H37Rv ATCC 35838 after 14 days.

`C1=C2CCCC/C=C\C=C\CCN3CC[C@@H]4[C@H](CCCCCC/C=C\C=C/CCN(C2)C[C@H]14)C3` [HALICYCLAMINE A]: the minimum inhibitory concentration (MIC) (usually the smallest concentration in the dilution series that meets the test's criterion for growth inhibition) in test [1] was found to be 3.13 µg/mL (≈ 6.76 µM); in test [2], 6.25 µg/mL (≈ 13.5 µM); in test [3], 3.13 µg/mL (≈ 6.76 µM); in test [4], 3.13 µg/mL (≈ 6.76 µM).
